Results taken from patent publication EP2604265A1, “P2x7 antagonists as frontline or adjunctive treatment against status epilepticus” (Royal College of Surgeons in Ireland (RCSI), priority 2011, dated 2013).

How the values were obtained:
P2X2 = molecular target: T1, P2X2 (Homo sapiens, UniProt Q9UBL9); conditions: selectivity of BBG; cited from earlier work
T1 sequence (Q9UBL9 1-471): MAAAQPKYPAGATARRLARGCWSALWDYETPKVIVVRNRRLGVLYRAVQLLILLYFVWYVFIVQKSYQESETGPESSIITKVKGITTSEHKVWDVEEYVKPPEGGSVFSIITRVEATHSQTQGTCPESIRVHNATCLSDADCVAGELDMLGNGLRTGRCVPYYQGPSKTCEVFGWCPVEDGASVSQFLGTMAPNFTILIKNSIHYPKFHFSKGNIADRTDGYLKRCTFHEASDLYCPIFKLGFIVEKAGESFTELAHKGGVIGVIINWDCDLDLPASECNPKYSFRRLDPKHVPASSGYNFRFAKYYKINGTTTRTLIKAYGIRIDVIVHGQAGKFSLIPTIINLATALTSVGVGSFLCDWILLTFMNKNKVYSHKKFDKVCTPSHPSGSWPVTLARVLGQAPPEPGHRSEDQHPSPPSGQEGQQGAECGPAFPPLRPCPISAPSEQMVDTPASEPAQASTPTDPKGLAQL

P2Y receptors = conditions: selectivity of BBG; cited from earlier work
Adult male C57BL/6 mice = experiment: Refractory SE model in mice, drugs given 60 min post-KA, EEG during the next hour; format: in vivo
Method: Adult male C57BL/6 mice (20-25 g) were obtained from Harlan UK (Blackthorn, UK). Mice were first anesthetized using isoflurane (3-5%) and maintained normothermic by means of a feedback-controlled heat blanket (Harvard Apparatus Ltd, Kent, UK). Mice were next placed in a stereotaxic frame and three partial craniectomies performed to affix cortical skull-mounted EEG electrodes (Bilaney Consultants Ltd, Sevenoaks, UK). EEG was recorded using a Grass Comet XL digital EEG (Medivent Ltd, Lucan, Ireland). A guide cannula was affixed (coordinates from Bregma: AP = 0.94; L = 2.85 mm) and the assembly fixed in place with dental cement. Anesthesia was then discontinued and freely moving mice were placed inside a clear perspex recording chamber. EEG recordings were commenced and after establishing baseline EEG for a few minutes, an injection cannula was lowered through the guide cannula for injection of kainic acid (KA) (Ocean Produce International, Nova Scotia, Canada) into the basolateral amygdala nucleus (0.3 µg in 0.2 µl phosphate-buffered saline). Non-seizure control mice underwent the same surgical procedure but received 0.2 µl intra-amygdala vehicle. Mice were killed at different time-points (1, 4, 8 or 24 h) later and perfused with saline to remove intravascular blood components. Brains were either flash-frozen whole in 2-methylbutane at […] or perfused with 4% PFA for histopathology, or dissected on ice to obtain whole hippocampus or microdissected to obtain the different hippocampal subfields (CA1, DG and CA3).
(§1) Digitized EEG recordings were analyzed off-line using manual assessment and automated software. The occurrence of high amplitude high frequency spiking during seizures is synonymous with injury-causing electrographic seizures during SE (also termed type IV electrographic seizures) (Lowenstein et al., 1991; Henshall et al., 2000). The duration of high-frequency (>5 Hz) high-amplitude (>2× baseline) polyspike discharges of ≥5 s duration (HAHFDs) was counted by a reviewer blind to treatment. Further EEG analysis was performed by uploading EEG into Labchart7 software (ADInstruments) to calculate the power spectral density (total power, a measure of the input signal's power (amplitude) over frequency) EEG spectrogram (spectral power against frequency and time).
A-438079 (3-[[5-(2,3-Dichlorophenyl)-1H-tetrazol-1-yl]methyl]pyridine hydrochloride) (50 µM) was from Tocris Biosciences (Bristol, U.K.) and the P2X7R specific antibody was from Alomone Labs (APR-008, Alomone Labs, Ltd, Jerusalem, Israel) and injected at 0.7 mg/ml. Lorazepam (Ativan®, Wyeth, Taplow, U.K.) (6 mg/kg) was administered intraperitoneally (i.p.) at 40 or 60 min after KA.
To model refractory SE, seizures were allowed to continue beyond the normal time when lorazepam is given (40 min) and instead the effects of drugs were recorded 60 min post-KA on the EEG during the next hour.

[1] = system: 10 day old Sprague Dawley rat pups; experiment: Neonatal SE model, intra-amygdala KA in P10 rat pups, EEG; format: in vivo; conditions: 150 µmol/kg intraperitoneally, 40 min post-KA
Method: 10 day old Sprague Dawley rat pups were obtained from Harlan UK Limited (Blackthorn, UK). Rat pups were equipped with skull surface EEG and given intra-amygdala microinjection of kainic acid (2 µg) via an implanted guide cannula. P10 rat pups develop SE shortly after KA injection. Seizures in the model are propagated to the hippocampus and surface EEG recordings have previously shown a transition to low amplitude high frequency EEG, developing into high amplitude high frequency epileptiform EEG seizures. The pups display behaviour including initial masticatory movements and salivation, developing to periods of facial and forelimb myoclonus and progressing to the most commonly observed behaviour of wild running, loss of posture and swimming motions. The high amplitude high frequency spiking is sustained and corresponds to wild running and swimming behaviours during recordings 1-2 h after KA. By 4 hours, continuous seizures have abated but the EEG continues to display intermittent lower-amplitude high frequency spiking and high amplitude low frequency spikes even after 24 h. The pathological consequences of neonatal seizures in the model include hippocampal cell death and the animals later display unilateral hippocampal sclerosis.
as §1, with “time). […]” for “time).”

| SMILES | inhibition of P2X2 (P2X2) | inhibition of some P2Y receptors (P2Y receptors) | total seizure time (duration of HAHFDs) (Adult male C57BL/6 mice; given 60 min after KA, 60 min recording, vs vehicle) | seizure activity (Adult male C57BL/6 mice; given 60 min after KA, particularly within the first 15-30 min following injection) | mice continued in SE (Adult male C57BL/6 mice; given alone 60 min after KA, number of mice / group) | seizures ([1]; P10 rat pups) | amplitude ([1]; vs vehicle (PBS)) | total power ([1]; vs vehicle (PBS)) |
| --- | --- | --- | --- | --- | --- | --- | --- | --- |
| CCOc1ccc(Nc2ccc(C(=C3C=CC(=[N+](CC)Cc4cccc(S(=O)(=O)[O-])c4)C=C3C)c3ccc(N(CC)Cc4cccc(S(=O)(=O)O)c4)cc3C)cc2)cc1 [BBG, Brilliant Blue G] | low micromolar range | low micromolar range |  |  |  |  |  |  |
| Cl.Clc1cccc(-c2nnnn2Cc2cccnc2)c1Cl [A-438079, 3-[[5-(2,3-Dichlorophenyl)-1H-tetrazol-1-yl]methyl]pyridine hydrochloride] |  |  | not significantly different | some suppression | 3/5 | strongly reduced | less amplitude | less total power |
